Test results from PubChem BioAssay AID493133 (Sanford-Burnham Center for Chemical Genomics, 2011).
Active and inactive are the calls of the source. How the calls were made is not given here.

Biological target: Alkaline phosphatase, tissue-nonspecific isozyme (Homo sapiens) (UniProt P05186)
Assay: human TNAP activity change by analogs – biochemical, selectivity assay for mouse IAP activator project, SAR follow-up (AID 493133)
Conditions: purified human TNAP enzyme, phosphatase activity counter-screen

Chain of Alkaline phosphatase, tissue-nonspecific isozyme (Homo sapiens) (P05186 whole entry, looked up): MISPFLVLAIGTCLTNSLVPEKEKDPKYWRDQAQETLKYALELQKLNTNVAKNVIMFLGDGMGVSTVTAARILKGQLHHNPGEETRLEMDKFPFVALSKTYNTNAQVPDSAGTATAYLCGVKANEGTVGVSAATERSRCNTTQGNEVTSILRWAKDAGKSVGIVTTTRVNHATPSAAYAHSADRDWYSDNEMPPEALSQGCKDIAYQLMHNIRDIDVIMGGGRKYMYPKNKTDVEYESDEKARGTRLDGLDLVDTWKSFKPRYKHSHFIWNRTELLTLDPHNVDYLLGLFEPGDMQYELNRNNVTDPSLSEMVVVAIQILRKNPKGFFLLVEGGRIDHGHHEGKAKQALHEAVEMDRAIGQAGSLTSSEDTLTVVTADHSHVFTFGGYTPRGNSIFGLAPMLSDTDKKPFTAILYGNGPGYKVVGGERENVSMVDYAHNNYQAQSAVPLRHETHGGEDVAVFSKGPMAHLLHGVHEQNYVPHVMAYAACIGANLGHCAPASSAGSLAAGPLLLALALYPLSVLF

| Compound | EC50 |
| --- | --- |
| N#Cc1c(SCC(=O)Nc2nncs2)sc2c(O)cc(=O)[nH]c12 | > 100 µM (inactive) |
| CC(C)NC(=O)CSc1sc2c(O)cc(=O)[nH]c2c1C#N | > 100 µM (inactive) |
| N#Cc1cccc(NC(=O)CSc2sc3c(O)cc(=O)[nH]c3c2C#N)c1 | > 100 µM (inactive) |
| O=C(N/N=C/C1CC2CCC1C2)c1cc(O)c(O)c(O)c1 (stereo unspecified) | > 100 µM (inactive) |
| CCOC(=O)NC(=O)CSc1sc2c(O)cc(=O)[nH]c2c1C#N | > 100 µM (inactive) |
| CCN(CC)C(=O)CSc1sc2c(O)cc(=O)[nH]c2c1C#N | > 100 µM (inactive) |
| COc1ccc(Cl)cc1NC(=O)CSc1sc2c(O)cc(=O)[nH]c2c1C#N | > 100 µM (inactive) |
| O=C(NN=Cc1cccnc1)c1cc(O)c(O)c(O)c1 | > 100 µM (inactive) |
| CCOc1ccccc1CNC(=O)CCNS(=O)(=O)c1ccc2[nH]c(=O)oc2c1 | > 100 µM (inactive) |
| CCN(C(=O)C(C)N1C(=O)/C(=C/c2ccco2)SC1=S)C1CCS(=O)(=O)C1 (stereo unspecified) | > 100 µM (inactive) |
| N#Cc1cccc(NC(=O)CCNS(=O)(=O)c2ccc3[nH]c(=O)oc3c2)c1 | > 100 µM (inactive) |
| CC(C(=O)N(C)C1CCS(=O)(=O)C1)N1C(=O)/C(=C/c2ccco2)SC1=S (stereo unspecified) | > 100 µM (inactive) |
| O=C(NCCc1ccc(Cl)cc1)C1CCCN(S(=O)(=O)c2ccc3[nH]c(=O)oc3c2)C1 (stereo unspecified) | > 100 µM (inactive) |
| COc1ccccc1NC(=O)CSc1sc2c(O)cc(=O)[nH]c2c1C#N | > 100 µM (inactive) |
| N#Cc1c(SCC(=O)Nc2ccc(Cl)cc2Cl)sc2c(O)cc(=O)[nH]c12 | > 100 µM (inactive) |
| COc1ccc(OC)c(NC(=O)CSc2sc3c(O)cc(=O)[nH]c3c2C#N)c1 | > 100 µM (inactive) |
| CCOc1ccc2nc(NC(=O)CN(C)S(=O)(=O)c3ccc4[nH]c(=O)oc4c3)sc2c1 | > 100 µM (inactive) |
| N#Cc1c(SCC(=O)NCc2ccc3c(c2)OCO3)sc2c(O)cc(=O)[nH]c12 | > 100 µM (inactive) |
| Cc1ccc(NC(=O)CCNS(=O)(=O)c2ccc3[nH]c(=O)oc3c2)cc1F | > 100 µM (inactive) |
| O=C(CCCN1C(=O)/C(=C/c2ccco2)SC1=S)Nc1ccccc1 | > 100 µM (inactive) |
| Cc1ccc(NC(=O)CCNS(=O)(=O)c2ccc3[nH]c(=O)oc3c2)cc1 | > 100 µM (inactive) |
| O=C1/C(=C/c2ccco2)SC(=S)N1C1CCS(=O)(=O)C1 (stereo unspecified) | > 100 µM (inactive) |
| Cc1ccc(NC(=O)CCNS(=O)(=O)c2ccc3[nH]c(=O)oc3c2)c(C)c1 | > 100 µM (inactive) |
| O=C(CN1C(=O)/C(=C/c2ccco2)SC1=S)Nc1ccc(C(=O)O)cc1 | > 100 µM (inactive) |
| CC(C)C(C(=O)NC1CCS(=O)(=O)C1)N1C(=O)/C(=C\c2ccco2)SC1=S (stereo unspecified) | > 100 µM (inactive) |
| O=C(CCN1C(=O)/C(=C/c2ccco2)SC1=S)Nc1ccc(C(=O)O)c(O)c1 | > 100 µM (inactive) |

| Compound | EC50 |
| --- | --- |
| O=C(N/N=C/c1ccccc1F)c1cc(O)c(O)c(O)c1 | > 100 µM (inactive) |
| O=C(CN1C(=O)/C(=C\c2ccco2)SC1=S)Nc1cccc(C(=O)O)c1 | > 100 µM (inactive) |
| O=C(CN1C(=O)/C(=C\c2ccco2)SC1=S)Nc1ccc(C(=O)O)cc1 | > 100 µM (inactive) |
| O=C(N/N=C/C1CC=CCC1)c1cc(O)c(O)c(O)c1 (stereo unspecified) | > 100 µM (inactive) |
| CC(C(=O)NCCc1ccc(O)c(O)c1)N1C(=O)/C(=C\c2ccco2)SC1=S (stereo unspecified) | > 100 µM (inactive) |
| O=C(CN1C(=O)/C(=C/c2ccco2)SC1=S)NCCc1ccc(O)cc1 | > 100 µM (inactive) |
| CC(C(=O)NCCc1ccc(O)cc1)N1C(=O)/C(=C/c2ccco2)SC1=S (stereo unspecified) | > 100 µM (inactive) |
| COC(=O)NNC(=O)c1cc(OC)c(OC)c(OC)c1 | > 100 µM (inactive) |
| Cc1ccc(/C=C2\SC(=S)N(C3CCS(=O)(=O)C3)C2=O)o1 (stereo unspecified) | > 100 µM (inactive) |
| O=[N+]([O-])c1ccc(NC(=S)NCCC(c2ccccc2)c2ccccc2)cc1 | > 100 µM (inactive) |
| O=C(CN1C(=O)/C(=C/c2ccco2)SC1=S)N[C@@H]1CSC[C@@H]1O | > 100 µM (inactive) |
| O=C(CN1C(=O)/C(=C/c2ccco2)SC1=S)Nc1ccc(C(=O)O)c(O)c1 | > 100 µM (inactive) |
| O=C(CCNS(=O)(=O)c1ccc2[nH]c(=O)oc2c1)Nc1ccccc1 | > 100 µM (inactive) |
| O=C(N/N=C/c1ccco1)c1cc(O)c(O)c(O)c1 | > 100 µM (inactive) |
| CCOc1cccc(NC(=O)CSc2sc3c(O)cc(=O)[nH]c3c2C#N)c1 | > 100 µM (inactive) |
| O=C(CN1C(=O)/C(=C/c2ccco2)SC1=S)NC1C=CS(=O)(=O)C1 (stereo unspecified) | > 100 µM (inactive) |
| O=C(CN1C(=O)/C(=C\c2ccco2)SC1=S)Nc1ccc(O)cc1C(=O)O | > 100 µM (inactive) |
| COc1cc(Cl)c(C)cc1NC(=O)CSc1sc2c(O)cc(=O)[nH]c2c1C#N | > 100 µM (inactive) |
| CCSc1nnc(NC(=O)CSc2sc3c(O)cc(=O)[nH]c3c2C#N)s1 | > 100 µM (inactive) |
| COc1ccccc1CNC(=O)CCNS(=O)(=O)c1ccc2[nH]c(=O)oc2c1 | > 100 µM (inactive) |
| CC(C)N1CCC(=NNC(=O)c2cc(O)c(O)c(O)c2)CC1 | > 100 µM (inactive) |
| COc1cc(C(=O)NNC(=S)NC(=O)c2ccc(Cl)cc2)cc(OC)c1OC | 29.4 µM |
| COc1cc(C(=O)NNc2nc3cc4c(cc3s2)OCO4)cc(OC)c1OC | 18.4 µM |
| S=C(NCCC(c1ccccc1)c1ccccc1)Nc1ccc(Cl)cc1Cl | 56 µM |
| O=C(NNC(=O)c1cc(O)c(O)c(O)c1)NC1CCCCC1 | > 100 µM (inactive) |
